Laboratory results: US5622950A, “Pyrrolo-pyridine derivatives” (Merck, Sharp & Dohme Ltd., priority 1993, dated 1997)
pKi: −log10 of the molar value. Blank lines part the entries; values can stand above or below the molecule they belong to.

Tests used:
[1] = molecular target: T1, human dopamine D4 receptor subtype (Homo sapiens, UniProt P21917); assay: [3H]-Spiperone binding (displacement), human dopamine D4 receptor subtype; details: selectivity ratio from Ki values for D4 and D2 subtypes
T1 sequence (P21917 1-419): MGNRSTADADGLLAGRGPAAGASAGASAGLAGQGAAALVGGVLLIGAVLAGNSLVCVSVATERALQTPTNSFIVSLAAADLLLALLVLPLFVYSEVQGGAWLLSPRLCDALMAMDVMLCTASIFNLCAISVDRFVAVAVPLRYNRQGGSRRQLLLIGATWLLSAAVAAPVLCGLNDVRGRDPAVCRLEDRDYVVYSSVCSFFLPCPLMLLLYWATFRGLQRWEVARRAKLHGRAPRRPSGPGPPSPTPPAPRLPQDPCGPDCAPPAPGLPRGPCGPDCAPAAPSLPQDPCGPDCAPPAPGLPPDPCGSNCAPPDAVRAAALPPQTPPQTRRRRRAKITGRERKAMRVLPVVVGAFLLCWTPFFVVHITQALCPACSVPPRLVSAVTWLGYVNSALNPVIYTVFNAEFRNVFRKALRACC

[2] = molecular target: T2, human dopamine D2 receptor subtype (Homo sapiens, UniProt P14416); assay: [3H]-Spiperone binding (displacement), human dopamine D2 receptor subtype; details: human dopamine D2 receptor subtype expressed in clonal cell lines
T2 construct: expressed in transfected cells
T2 sequence (P14416 whole entry): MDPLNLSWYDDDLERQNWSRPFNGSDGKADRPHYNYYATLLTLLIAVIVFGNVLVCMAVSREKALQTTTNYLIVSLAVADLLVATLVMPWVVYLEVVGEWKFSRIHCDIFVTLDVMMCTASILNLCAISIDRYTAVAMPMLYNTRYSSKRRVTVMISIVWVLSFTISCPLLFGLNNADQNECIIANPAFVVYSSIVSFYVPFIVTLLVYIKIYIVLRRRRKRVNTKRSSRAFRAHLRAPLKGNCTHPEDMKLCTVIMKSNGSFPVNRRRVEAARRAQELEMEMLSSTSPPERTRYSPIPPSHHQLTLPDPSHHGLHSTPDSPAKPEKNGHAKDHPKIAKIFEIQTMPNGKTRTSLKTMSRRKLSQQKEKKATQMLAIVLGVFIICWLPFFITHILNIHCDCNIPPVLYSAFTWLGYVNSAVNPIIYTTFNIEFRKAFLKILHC

[3] = system: apomorphine-induced stereotypy; assay: Extrapyramidal disorders: effect on apomorphine-induced stereotypy in the rat; assay type: in vivo
Excerpt: Representative compounds according to the invention have been tested for their effect on apomorphine-induced stereotypy in the rat. This is an art-recognised model of the potential to induce extrapyramidal side-effects.

[4] = system: spontaneous motor activity; assay: Sedation: effects on spontaneous motor activity of rats in novel cages equipped with photocells (number of cage crossings); assay type: in vivo; details: rat
Excerpt: Representative compounds according to the invention have been tested for their effects on spontaneous motor activity occasioned by placing rats in novel cages equipped with photocells in order to determine the number of cage crossings. This is an art-recognised model of the sedation potential of a given test compound.

D4:D2 ratio [1]: greater than 1150 | pKi [2]: < 5.82
Structure (SMILES): COc1ccc(N2CCN(Cc3c[nH]c4ncccc34)CC2)cc1 [Example 2, 3-(4-[4-Methoxyphenyl]piperazin-1-yl)methyl-1H-pyrrolo [2,3-b]pyridine]

Structure (SMILES): Clc1ccc(N2CCN(Cc3c[nH]c4ncccc34)CC2)cc1 [Example 5, 3-(4-[4-Chlorophenyl]piperazin-1-yl)methyl-1H-pyrrolo [2,3-b]pyridine]
potential to induce extrapyramidal side-effects (apomorphine-induced stereotypy) ([3]; doses up to 1.0 mg/kg): no potential to induce the extrapyramidal side-effects | sedation (spontaneous motor activity) ([4]; doses of up to 10-30 mg/kg): no evidence for sedation

Structure (SMILES): O=C(CCCN1CCC(O)(c2ccc(Cl)cc2)CC1)c1ccc(F)cc1 [haloperidol, reference compound]
potential to elicit extrapyramidal side-effects (apomorphine-induced stereotypy) ([3]; doses of 0.5 and 1.0 mg/kg): significant potential to elicit extrapyramidal side-effects | sedation (spontaneous motor activity) ([4]; dose of 1 mg/kg): marked sedation
